# “Also recorded” adds a separate entry of the source. Read-outs that look alike come from different tables or passages of the source.
# How the values were obtained:
# [1] = DPPH free radical scavenging (antioxidant) assay; conditions: read-out: Antioxidant Activity EC50; DPPH method, mean of three independent experiments
# Method: The radical scavenging activity (antioxidant capacity) of the herein-developed RIV-IND hybrids was determined by the DPPH method [33]. Working solutions of the compounds in 10% DMSO/MeOH (, HoneywellSeelze, Germany) medium were used to prepare 5 methanolic solutions (5 points, 3 replicates) containing DPPH (Sigma-Aldrich, Steinheim, Germany) and different concentrations of compound up to 3.5 mL total volume. […] The respective antioxidant activity (%AA) was calculated using the following equation: %AA=ADPPH−Aligand/ADPPH×100
# The reported results were obtained as the mean values of three independent experiments.
# The new RIV-IND compounds were also screened for their radical scavenging activity (EC50), according to the 2,2-diphenyl-1-picrylhydrazyl (DPPH) free radical method.
# Aβ1-42 = biological target: T1, Aβ1-42 (Homo sapiens, UniProt P05067); assay: Inhibition of Aβ1-42 self-aggregation, thioflavin T fluorescence; format: biochemical; conditions: Cinhibitor = 20 µM, Aβ1-42 40 µM, 37 °C, 24 h, read-out: Aβ42 Self-Aggreg. Inhib
# T1 construct: purchased Genecust, Boynes, France
# Method: The Aβ peptide (Genecust, Boynes, France) was treated with 1,1,1,3,3,3-hexafluoropropan-2-ol (HFIP, Aldrich, Steinheim, Germany) and dissolved in a CH3CN/Na2CO3 (300 µM)/NaOH (250 µM) ([…], v/v/v) mixture in order to have a stable stock solution of Aβ1-42 with concentration 500 µM.
# Solutions of the assayed compounds (0.5 mg/mL) were firstly prepared in 60% (v/v) DMSO/MeOH medium and then diluted in phosphate buffer (0.215 M, pH 8.0) to a concentration of 120 µM. The Aβ1-42 aggregation inhibition assays were performed according to a reported method based on the fluorescence emission of thioflavin T (ThT, Aldrich Steinheim, Germany). Therefore, Aβ1-42 (40 µM) was incubated at 37 °C for 24 h in phosphate buffer and in the presence or absence of each ligand (20 µM). Then, the samples were added to a 96-well plate with 180 µL of 5 µM ThT in 50 mM glycine-NaOH (pH 8.5) buffer. Blank samples were identically prepared for each concentration but in the absence of the peptide. The ThT fluorescence was measured at 445 nm (excitation) and 485 nm (emission). The percent of aggregation inhibition was calculated by the following equation:I% = 100 − (IFi/IF0 × 100), in which IFi and IF0 are the fluorescence intensities, in the presence and the absence of the tested compound, subtracted from the fluorescence intensities due to the respective blanks. The reported values were obtained as the mean ± SEM of two different experiments performed in duplicate.
# The inhibitory capacity of the RIV-IND hybrids towards Aβ42 self-aggregation was evaluated in vitro by molecular fluorescence spectroscopy through the thioflavin T (ThT) method. In fact, since there is an increase in the absorbance and emission of ThT when it binds to amyloid fibrils, it is possible to determine the percent of Aβ42 self-aggregation (see Table 1). The assays were performed in the presence of 20 µM of inhibitor to overcome the solubility limitations of some compounds in the phosphate buffer aqueous medium.
# SH-SY5Y cells [2] = assay: Cell viability dose-response screening, MTT; format: cell-based, human; conditions: 24 h, screening 0.5 µM to 20 µM
# Method: (§1) Cell viability, following treatment with the compounds, was determined using the colorimetric MTT (3-(4,5-dimethylthiazol-2-yl)-2,5-diphenyltetrazolium bromide) assay. The tested compounds (5a1-3, 5b1-3, 5c1-3) were dissolved in DMSO to produce stock solutions of 25 mM and stored at −20 °C. A concentration screening was performed for 0.5 µM to 20 µM final concentrations to choose the highest nontoxic concentration. SH-SY5Y human neuroblastoma cell line (ATCC-CRL-2266) was cultured in Dulbecco’s modified Eagle’s medium (DMEM) (Gibco-Invitrogen, Life Technologies Ltd., Waltham, MA, USA) with heat-inactivated fetal calf serum (10%), penicillin (50 U/mL) and streptomycin (50 µg/mL) at 37 °C with 5% CO2. Cells were plated at 0.15 × 10^6 cells/mL one day prior to the start of the experiment. The cells were then incubated with the appropriate concentration of the compounds for 24 h. After the incubation period, the cells were washed once with PBS and incubated with 200 µL MTT (0.5 mg/mL) for 2 h at 37 °C with 5% CO2. During this period, cellular dehydrogenase successfully metabolized MTT into formazan, which was then solubilized using 200 µL of 0.04 M HCl/isopropanol. Absorbance was measured at 570 nm.
# The new RIV-IND hybrids were tested to determine their protective role in the toxicity induced by either Aβ1-42 peptides or iron/ascorbate. SH-SY5Y cells were incubated with a set of concentrations of each of the compounds and a dose–response curve was constructed to select the highest nontoxic concentration.
# Figure 3 Dose–response screening of RIV-IND compounds 5a1-3, 5b1-3 and 5c1-3 measured by MTT reduction ability on SH-SY5Y cells treated with different concentrations of the compounds for 24 h. Results are expressed relatively to untreated cells, with the mean ± standard error of the mean (SEM) derived from three independent experiments. * p < 0.05; ** p < 0.01; *** p < 0.001 compared to untreated cells. (The dot line indicates 100% cellular viability).
# [3] = biological target: T2, equine butyrylcholinesterase (eqBChE) (Equus caballus, UniProt P81908); assay: BChE inhibition, adapted Ellman method; format: biochemical; conditions: for SI (selectivity index): IC50 (AChE)/IC50 (BChE); for IC50: eqBChE, mean of two independent experiments ± SD, read-out: BChE Inhib IC50
# T2 construct: purchased Sigma-Aldrich (Steinheim, Germany)
# Method: (§2) The enzyme inhibition of electric eel acetylcholinesterase (eeAChE) and equine butyrylcholinesterase (eqBChE) by our compounds was evaluated through an adaptation of Elmman´s method using reagents from Sigma-Aldrich (Steinheim, Germany). Stock solutions of each compound (1 mg) in MeOH (1 mL) were prepared and then working solutions for each ligand were obtained by the corresponding dilution of the stock solutions. A control measurement with 5 replicates (without ligand) and a calibration curve of 5 points with 3 replicates per point was performed. The preparation of each solution involved fixed volumes of 4-(2-hydroxyethyl)-1-piperazine-ethanesulfonic acid (HEPES) and cholinesterase (eeAChE or eqBChE) with different volumes of ligand solution, and it was left to rest for 15 min immediately after adding the cholinesterase. A blank solution containing HEPES and MeOH was also prepared at the same time. […] The slope for each calibration point (absorbance versus reaction time) was determined and the inhibition for each compound was calculated by using the following equation: %Inhibition=100−(vi/v0×100) where vi is the reaction rate (slope) for each point of the calibrate with ligand and v0 is the initial reaction rate (slope) for the control point (without ligand). […] Experiments were performed twice for each compound.
# SH-SY5Y cells [4] = assay: Neuroprotection against Aβ1-42-induced toxicity, MTT; format: cell-based, human; conditions: Aβ1-42 1 µM, 24 h, optimized concentration of each compound
# Method: as §1
# To test whether the compounds have a protective effect against toxicity induced by Aβ1-42 or iron/ascorbate, the cells were pre-incubated for 1 h with each compound, followed by the addition of Aβ1-42 or iron/ascorbate and incubation for an additional 24 h. Aβ1-42 (Bachem, Torrance, CA, USA) was prepared in sterile water to produce a stock solution of 443 µM and added to the cells at a final concentration of 1 µM. Ferrous sulfate and L-ascorbic acid (Sigma Chemical Co, St. Louis, MO, USA), prepared in sterile water, were added to the medium together at a final concentration of 5 mM and 2.5 mM, respectively. For this assay, the optimal concentration of each compound was used to prevent cellular demise induced by Aβ1-42 or iron/ascorbate. Compound 5a1 was added to the medium at a 1 µM final concentration; compounds 5a2, 5a3, 5b1, 5b2 and 5c2 were added to the medium at a 2.5 µM final concentration; compounds 5c1 and 5c3 were added to the medium at a 5 µM final concentration; and compound 5b3 was added to the medium at a 10 µM final concentration. […] Controls were employed for each plate using untreated cells and Aβ1-42 or iron/ascorbate only. Cell reduction ability was normalized to the untreated condition. All data are expressed as mean ± SEM of at least three independent experiments performed in duplicate. Statistical analyses were performed for normality assessment using Shapiro–Wilk’s test followed by the Kruskal–Wallis test considering that normality was not verified. Post hoc analysis was performed using uncorrected Dunn’s test. A p value < 0.05 was considered statistically significant.
# Figure 4 Neuroprotective effect of RIV-IND compounds against cellular toxicity induced by Aβ1-42 measured by MTT reduction ability on SH-SY5Y cells pretreated with […] for one hour, followed by a 24 h incubation with the optimized concentration of each compound. Results are expressed relatively to untreated cells, with the mean ± standard error of the mean (SEM) derived from three to seven independent experiments. * p < 0.05; ** p < 0.01; *** p < 0.001; **** p < 0.0001 compared to untreated cells. # p < 0.05 compared to Aβ1-42-treated cells. (The dot line indicates the decrease in cellular viability induced by Aβ).
# [5] = biological target: T3, electric eel acetylcholinesterase (eeAChE) (Electrophorus electricus, UniProt O42275); assay: AChE inhibition, adapted Ellman method; format: biochemical; conditions: mean of two independent experiments ± SD, read-out: AChE Inhib IC50
# T3 construct: purchased Sigma-Aldrich (Steinheim, Germany)
# Method: as §2
# SH-SY5Y cells [6] = assay: Neuroprotection against iron/ascorbate-induced toxicity, MTT; format: cell-based, human; conditions: ferrous sulfate 5 mM and L-ascorbic acid 2.5 mM, 24 h, optimized concentration of each compound
# Method: as §1
# To test whether the compounds have a protective effect against toxicity induced by Aβ1-42 or iron/ascorbate, the cells were pre-incubated for 1 h with each compound, followed by the addition of Aβ1-42 or iron/ascorbate and incubation for an additional 24 h. Aβ1-42 (Bachem, Torrance, CA, USA) was prepared in sterile water to produce a stock solution of 443 µM and added to the cells at a final concentration of 1 µM. […] All data are expressed as mean ± SEM of at least three independent experiments performed in duplicate. […]
# Figure 5 Neuroprotective effect of RIV-IND compounds against cellular toxicity induced by iron/ascorbate (Fe/Asc) measured by MTT reduction ability on SH-SY5Y cells pretreated with iron/ascorbate for one hour, followed by a 24 h incubation with the optimized concentration of each compound. […]
# [7] = parameters: method as in PMID 23344203; conditions: reference antioxidant; read-out: radical scavenging activity EC50; cited from earlier work
# T1 sequence (P05067 672-713 limits assumed): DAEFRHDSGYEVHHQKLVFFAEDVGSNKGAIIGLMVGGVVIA
# T2 sequence (P81908 whole entry): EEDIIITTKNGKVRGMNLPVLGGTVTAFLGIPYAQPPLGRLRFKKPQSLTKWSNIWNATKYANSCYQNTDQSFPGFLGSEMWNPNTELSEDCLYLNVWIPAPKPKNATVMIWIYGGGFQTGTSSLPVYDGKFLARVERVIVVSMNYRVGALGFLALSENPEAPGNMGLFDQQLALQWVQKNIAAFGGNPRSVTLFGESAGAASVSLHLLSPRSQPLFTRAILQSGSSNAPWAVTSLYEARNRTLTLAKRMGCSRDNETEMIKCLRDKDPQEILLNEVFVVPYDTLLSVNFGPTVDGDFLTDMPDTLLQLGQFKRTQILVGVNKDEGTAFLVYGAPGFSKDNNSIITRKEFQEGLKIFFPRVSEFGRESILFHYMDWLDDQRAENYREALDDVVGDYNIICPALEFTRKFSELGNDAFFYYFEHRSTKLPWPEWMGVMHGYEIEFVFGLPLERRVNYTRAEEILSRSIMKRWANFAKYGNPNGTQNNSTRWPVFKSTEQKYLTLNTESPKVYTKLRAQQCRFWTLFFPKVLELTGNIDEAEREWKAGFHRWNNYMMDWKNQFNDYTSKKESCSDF
# T3 sequence (O42275 24-633): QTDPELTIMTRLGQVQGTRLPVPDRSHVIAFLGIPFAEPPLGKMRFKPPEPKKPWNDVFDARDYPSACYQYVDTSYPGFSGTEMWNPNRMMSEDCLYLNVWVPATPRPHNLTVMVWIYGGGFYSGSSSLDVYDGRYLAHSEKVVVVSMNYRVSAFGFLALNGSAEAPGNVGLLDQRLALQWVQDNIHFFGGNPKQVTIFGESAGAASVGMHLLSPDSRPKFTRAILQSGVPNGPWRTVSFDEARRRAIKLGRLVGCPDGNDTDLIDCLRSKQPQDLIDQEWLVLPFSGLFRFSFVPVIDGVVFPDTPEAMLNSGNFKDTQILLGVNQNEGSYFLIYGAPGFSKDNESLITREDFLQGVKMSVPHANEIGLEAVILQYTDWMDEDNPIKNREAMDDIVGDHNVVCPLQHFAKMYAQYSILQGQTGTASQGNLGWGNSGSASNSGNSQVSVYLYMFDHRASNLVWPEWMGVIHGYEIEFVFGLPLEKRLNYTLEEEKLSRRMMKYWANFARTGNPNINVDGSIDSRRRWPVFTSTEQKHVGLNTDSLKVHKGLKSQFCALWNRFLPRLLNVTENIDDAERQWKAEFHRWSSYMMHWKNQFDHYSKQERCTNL
SMILES,EC50 [1] [µM],inhibition at 20 µM (Aβ1-42) [%],highest nontoxic concentration (SH-SY5Y cells [2]) [µM],SI (selectivity index) [3],IC50 [3] [µM],neuroprotective effect against toxicity induced by Aβ1-42 (SH-SY5Y cells [4]),IC50 [5] [µM],neuroprotective effect against toxicity induced by iron/ascorbate (SH-SY5Y cells [6]),EC50 [7] [µM]
"Cc1c(C)c2c(c(C)c1O)CCC(C)(C(=O)O)O2 (stereo not drawn) [Trolox, reference compound]",13.8 ± 0.2,–,–,–,–,–,–,–,–
CCN(C)C(=O)Oc1cccc(NC(=O)c2cc3ccccc3[nH]2)c1 [Compound 5a1],> 2000,26.9,1,6.0,29.9 ± 0.4,–,–,–,–
"CCN(C)C(=O)Oc1cccc(CCNC(=O)c2cc3cc(O)ccc3[nH]2)c1 [Compound 5c2, 3-(2-(5-Hydroxy-1H-indole-2-carboxamido)ethyl)phenyl ethyl(methyl)carbamate]",8.5 ± 0.6,49.9,2.5,3.8,15.2 ± 0.4,can prevent the toxicity induced by Aβ1-42 to cells; also recorded: able to rescue Aβ1-42-induced toxicity to levels that were not significantly different from untreated cells; also recorded: able to prevent the toxicity induced by Aβ1-42 to neuroblastoma cells (SH-SY5Y),58.6 ± 0.3,–,–
"CCN(C)C(=O)Oc1cccc(CCNC(=O)c2cc3cccc(O)c3[nH]2)c1 [Compound 5c3, 3-(2-(7-Hydroxy-1H-indole-2-carboxamido)ethyl)phenyl ethyl(methyl)carbamate]",20.7 ± 0.4,55.5,5,1.8,14.9 ± 0.7,also present neuroprotection,26.8 ± 0.3,–,–
"Cc1c(O)c(=O)ccn1C [Deferiprone, deferiprone, reference compound]",148 ± 3,–,–,–,–,–,–,–,–
"CCN(C)C(=O)Oc1cccc(CNC(=O)c2cc3cccc(O)c3[nH]2)c1 [Compound 5b3, 3-((7-Hydroxy-1H-indole-2-carboxamido)methyl)phenyl-ethyl(methyl)carbamate]",20.2 ± 0.4,47.8,10,14.2,5.7 ± 0.3,–,80.7 ± 0.4,able to significantly increase cell viability after the trigger; also recorded: able to significantly protect cell viability after iron/ascorbate oxidative insult,–
"CCN(C)C(=O)Oc1cccc(NC(=O)c2cc3cc(O)ccc3[nH]2)c1 [Compound 5a2, 3-(5-Hydroxy-1H-indole-2-carboxamido)phenyl ethyl(methyl)carbamate]",8.4 ± 0.2,25,2.5,64.0,3.22 ± 0.02,–,206 ± 4,–,–
"CCN(C)C(=O)Oc1cccc(CNC(=O)c2cc3cc(O)ccc3[nH]2)c1 [Compound 5b2, 3-((5-Hydroxy-1H-indole-2-carboxamido)methyl)phenyl-ethyl(methyl)carbamate]",7.8 ± 0.5,29.4,2.5,3.0,27.1 ± 0.1,can prevent the toxicity induced by Aβ1-42 to cells; also recorded: able to rescue Aβ1-42-induced toxicity to levels that were not significantly different from untreated cells; also recorded: able to prevent the toxicity induced by Aβ1-42 to neuroblastoma cells (SH-SY5Y),80 ± 2,–,–
"CCN(C)C(=O)Oc1cccc(CCNC(=O)c2cc3ccccc3[nH]2)c1 [Compound 5c1, 3-(2-(1H-indole-2-carboxamido)ethyl)phenyl ethylmethylcarbamate]",> 2000,25.6,5,2.8,14.5 ± 0.7,–,40 ± 2,–,–
O=C1O[C@H]([C@@H](O)CO)C(O)=C1O [vitamin C],–,–,–,–,–,–,–,–,15
